Here are results for 31 compounds from patent US8053574B2, “Organic compounds” (Novartis AG, priority 2007, dated 2011).

Sequence of PI3K γ (P48736 whole entry): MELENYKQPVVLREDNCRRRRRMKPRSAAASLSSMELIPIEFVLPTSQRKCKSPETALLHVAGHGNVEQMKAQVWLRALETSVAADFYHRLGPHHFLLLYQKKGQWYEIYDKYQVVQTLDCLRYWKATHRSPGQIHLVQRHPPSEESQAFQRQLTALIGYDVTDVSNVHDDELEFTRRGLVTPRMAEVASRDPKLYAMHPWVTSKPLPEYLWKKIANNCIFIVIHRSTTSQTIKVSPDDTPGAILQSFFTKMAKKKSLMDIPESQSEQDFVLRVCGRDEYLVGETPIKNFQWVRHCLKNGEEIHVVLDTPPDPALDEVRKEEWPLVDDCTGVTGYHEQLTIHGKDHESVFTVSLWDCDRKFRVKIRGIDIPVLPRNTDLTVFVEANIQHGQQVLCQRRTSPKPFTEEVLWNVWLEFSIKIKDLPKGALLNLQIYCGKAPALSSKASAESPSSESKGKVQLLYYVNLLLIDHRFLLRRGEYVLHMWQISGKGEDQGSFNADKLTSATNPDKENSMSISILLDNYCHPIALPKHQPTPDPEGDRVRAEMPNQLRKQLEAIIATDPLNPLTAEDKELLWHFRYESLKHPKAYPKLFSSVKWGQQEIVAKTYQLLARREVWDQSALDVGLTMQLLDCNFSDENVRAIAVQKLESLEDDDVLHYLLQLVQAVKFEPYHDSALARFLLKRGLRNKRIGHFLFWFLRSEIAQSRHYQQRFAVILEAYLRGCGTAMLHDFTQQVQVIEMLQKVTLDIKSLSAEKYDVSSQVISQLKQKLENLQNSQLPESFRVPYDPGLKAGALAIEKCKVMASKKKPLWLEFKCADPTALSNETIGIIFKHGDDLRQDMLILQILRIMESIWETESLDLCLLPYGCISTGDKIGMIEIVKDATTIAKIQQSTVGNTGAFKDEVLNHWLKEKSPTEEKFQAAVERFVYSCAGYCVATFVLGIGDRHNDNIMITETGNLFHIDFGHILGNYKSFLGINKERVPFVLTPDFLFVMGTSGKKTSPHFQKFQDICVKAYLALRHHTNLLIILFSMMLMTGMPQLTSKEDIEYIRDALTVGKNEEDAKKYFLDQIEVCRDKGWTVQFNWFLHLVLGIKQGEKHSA

The first experiment concerns the target PI3K γ (Homo sapiens, UniProt P48736). The experiment can be described thus: PI3 kinase phosphorylation assay (Biological Method 1), Ki γ. Format: biochemical. The settings on record: Table 1, compounds of formula X. The protocol:
The compounds of the invention were synthesized according to the examples provided above. PI3K inhibitory (IC50) values of the compounds were determined according to Biological Method 1.
Assay 1: Homogenous Solution Phase Assay
Compounds to be tested are dissolved in DMSO and directly distributed into 384-well flashplates at 1.25 μL per well. To start the reaction, 20 μL of 6 nM PI3 kinase are added into each well followed by 20 μL of 400 nM ATP containing a trace of radiolabeled ATP and 900 nM 1-alpha-phosphatidylinositol (PI). The plates are briefly centrifuged to remove any air gap. The reaction is performed for 15 minutes and then stopped by the addition of 20 μL of 100 mM EDTA. The stopped reaction is incubated overnight at RT to allow the lipid substrate to bind by hydrophobic interaction to the surface of the flashplate. The liquid in the wells is then washed away, and the labeled substrate is detected with scintillation counting.
Assay 2: One Step Solid Phase Assay
This method is similar to Assay 1 except that the lipid substrate (1-alpha-phosphatidylinositol (PI)) is first dissolved in a coating buffer and incubated on flashplate at room temperature overnight to allow the lipid substrate to bind by hydrophobic interaction to the surface of the flashplate. Unbound substrate is then washed away. On the day of assay, 20 μL of 6 nM PI3 kinase are added into each well followed by 20 μL of 400 nM ATP containing trace of radiolabeled ATP. Compounds are added together with enzyme and ATP to the lipid-coated plates. The plates are briefly centrifuged to remove any air gap. The reaction is performed for two to three hours. The reaction is stopped by addition of 20 μL of 100 mM EDTA or by immediate plate washing. Phosphorylated lipid substrate is detected by scintillation counting.
Assay 3: ATP Depletion Assay
Compounds to be tested are dissolved in DMSO and directly distributed into a black 384-well plate at 1.25 μL per well. To start the reaction, 25 μL of 10 nM PI3 kinase and 5 μg/mL 1-alpha-phosphatidylinositol (PI) are added into each well followed by 25 μL of 2 μM ATP. The reaction is performed until approx 50% of the ATP is depleted, and then stopped by the addition of 25 μL of KinaseGlo solution. The stopped reaction is incubated for 5 minutes and the remaining ATP is then detected via luminescence.
In turn, `COCCOCCOc1cncc(-c2ccc3nc(NC(=O)NCCc4nnn(C(C)C)n4)cn3c2)c1` [drawing 47] returned a Ki of 0.268 µM.

With `CCn1nnc(CCNC(=O)Nc2cn3cc(-c4cnc5ccccc5c4)ccc3n2)n1` [drawing 73], the Ki was found to be 0.57 µM.

The compound `CCn1nnc(CCNC(=O)Nc2cn3cc(-c4cc(Cl)cc(OC)c4)ccc3n2)n1` registered a Ki of 0.204 µM.

The compound `Cc1ccc(-c2ccc3nc(NC(=O)NCCc4nnn(C(C)C)n4)cn3c2)cn1` [drawing 61] showed a Ki of 0.113 µM.

Consider `CCn1nnc(CCNC(=O)Nc2cn3cc(Br)ccc3n2)n1` [drawing 103], for which the affinity, expressed as Ki, was 0.911 µM.

In turn, `CCn1nnc(CCNC(=O)Nc2cn3cc(-c4cccc(C(F)(F)F)c4)ccc3n2)n1` [drawing 31] returned a Ki of 0.24 µM.

`COc1cccc(-c2ccc3nc(NC(=O)NCCc4nnn(C(C)C)n4)cn3c2)c1` [drawing 71]: the affinity, expressed as Ki, was 1.03 µM.

As to `O=C(NCCn1nnc(C2CC2)n1)Nc1cn2cc(-c3cncc(C(F)(F)F)c3)ccc2n1` [drawing 67], the affinity corresponds to a Ki of 0.028 µM.

In turn, `CC(=O)c1cncc(-c2ccc3nc(NC(=O)NCCc4nnn(C(C)C)n4)cn3c2)c1` [drawing 99] registered an inhibition constant Ki of 0.008 µM.

Staying with this experiment, now noted: Table 2, compounds of formula X.
Turning to `Cc1ccc(-c2ccc3nc(NC(=O)NCCc4nnn(C(C)C)n4)cn3c2)cn1` [Example 1-24, 1-[2-(2-Isopropyl-2H-tetrazol-5-yl)-ethyl]-3-[6-(6-methyl-pyridin-3-yl)-imidazo[1,2-a]pyridin-2-yl]urea], the Ki was 0.113 µM.

For `CCn1nnc(CCNC(=O)Nc2cn3cc(-c4cc(Cl)ccc4OC)ccc3n2)n1` [Example 1-14, 1-[6-(5-Chloro-2-methoxy-phenyl)-imidazo[1,2-a]pyridin-2-yl]-3-[2-(2-ethyl-2H-tetrazol-5-yl)-ethyl]urea], the inhibitory constant (Ki) came to 0.204 µM.

For the compound `CC(C)(C)NC(=O)CCNC(=O)Nc1cn2cc(-c3cncc(OC4CCOCC4)c3)ccc2n1` [Example 1-18, N-tert-Butyl-3-(3-{6-[5-(tetrahydro-pyran-4-yloxy)-pyridin-3-yl]-imidazo[1,2-a]pyridin-2-yl}-ureido)-propionamide], affinity was put at a Ki of 0.397 µM.

On to `CCn1nnc(CCNC(=O)Nc2cn3cc(-c4cncc5ccccc45)ccc3n2)n1` [Example 1-42, 1-[2-(2-Ethyl-2H-tetrazol-5-yl)-ethyl]-3-(6-isoquinolin-4-yl-imidazo[1,2-a]pyridin-2-yl)-urea], for which the Ki came to 0.158 µM.

Turning to `CC(C)n1nnc(CCNC(=O)Nc2cn3cc(-c4cncc(C#N)c4)ccc3n2)n1` [Example 1-3, 1-[6-(5-Cyano-pyridin-3-yl)-imidazo[1,2-a]pyridin-2-yl]-3-[2-(2-isopropyl-2H-tetrazol-5-yl)-ethyl]-urea], the Ki was determined as 0.04 µM.

Regarding `CCn1nnc(CCNC(=O)Nc2cn3cc(Br)ccc3n2)n1` [Example 1-45, 1-(6-Bromo-imidazo[1,2-a]pyridin-2-yl)-3-[2-(2-ethyl-2H-tetrazol-5-yl)-ethyl]-urea], affinity was put at a Ki of 0.911 µM.

`CC(C)(C)NC(=O)CCNC(=O)Nc1cn2cc(-c3cncc(-c4ccccc4)c3)ccc2n1` [Example 1-15, N-tert-Butyl-3-{3-[6-(5-phenyl-pyridin-3-yl)-imidazo[1,2-a]pyridin-2-yl]ureido}-propionamide] had a Ki of 0.207 µM.

Turning to `CC(C)n1nnc(CCNC(=O)Nc2cn3cc(-c4ccccc4)ccc3n2)n1` [Example 1-31, 1-[2-(2-Isopropyl-2H-tetrazol-5-yl)-ethyl]-3-(6-phenyl-imidazo[1,2-a]pyridin-2-yl)-urea], the affinity, expressed as Ki, was 0.423 µM.

For the compound `CC(C)n1nnc(CCNC(=O)Nc2cn3cc(-c4cncc(Cl)c4)ccc3n2)n1` [Example 1-12, 1-[6-(5-Chloro-pyridin-3-yl)-imidazo[1,2-a]pyridin-2-yl]-3-[2-(2-isopropyl-2H-tetrazol-5-yl)-ethyl]urea], the Ki is 0.05 µM.

`CCn1nnc(CCNC(=O)Nc2cn3cc(-c4cnc5ccccc5c4)ccc3n2)n1` [Example 1-30, 1-[2-(2-Ethyl-2H-tetrazol-5-yl)-ethyl]-3-(6-quinolin-3-yl-imidazo[1,2-a]pyridin-2-yl)-urea] yielded a Ki of 0.57 µM.

`COc1ccc(-c2ccc3nc(NC(=O)NCCc4nnn(C(C)C)n4)cn3c2)cn1` [Example 1-19, 1-[2-(2-Isopropyl-2H-tetrazol-5-yl)-ethyl]-3-[6-(6-methoxy-pyridin-3-yl)-imidazo[1,2-a]pyridin-2-yl]-urea] showed an inhibitory constant (Ki) of 0.301 µM.

The experiment is the same for the next values; noted with them: Table 3, compounds of formula XI.
`O=C(NCCc1nnn(CCF)n1)Nc1nc2ccc(-c3cncc(C(=O)N4CCOCC4)c3)cc2s1` [Example 2-7, 1-{2-[2-(2-Fluoro-ethyl)-2H-tetrazol-5-yl]-ethyl}-3-{6-[5-(morpholine-4-carbonyl)-pyridin-3-yl]-benzothiazol-2-yl}-urea] showed a Ki of 0.0055 µM.

For the compound `O=C(NCCc1nnn(CCF)n1)Nc1nc2ccc(-c3cncc(C(F)(F)F)c3)cc2s1` [Example 2-8, 1-{2-[2-(2-Fluoro-ethyl)-2H-tetrazol-5-yl]-ethyl}-3-[6-(5-trifluoromethyl-pyridin-3-yl)-benzothiazol-2-yl]urea], the Ki came to 0.016 µM.

The compound `COc1ccc(-c2ccc3nc(NC(=O)NCCc4nnn(CCF)n4)sc3c2)cn1` [Example 2-2, 1-{2-[2-(2-Fluoro-ethyl)-2H-tetrazol-5-yl]-ethyl}-3-[6-(6-methoxy-pyridin-3-yl)-benzothiazol-2-yl]-urea] showed a Ki of 0.02 µM.

For `COc1ccc(-c2ccc3nc(NC(=O)NCc4cccnc4)sc3c2)cn1` [Example 2-5, 1-[6-(6-Methoxy-pyridin-3-yl)-benzothiazol-2-yl]-3-pyridin-3-ylmethyl-urea], affinity was put at a Ki of 0.149 µM.

For the compound `COc1ccc(-c2ccc3nc(NC(=O)NCCO)sc3c2)cn1` [Example 2-4, 1-(2-Hydroxy-ethyl)-3-[6-(6-methoxy-pyridin-3-yl)-benzothiazol-2-yl]-urea], the Ki is 0.038 µM.

The compound `CCn1cnc(CCNC(=O)Nc2nc3ccc(-c4cncc(C(F)(F)F)c4)cc3s2)c1` [Example 2-12, 1-[2-(1-Ethyl-1H-imidazol-4-yl)-ethyl]-3-[6-(5-trifluoromethyl-pyridin-3-yl)-benzothiazol-2-yl]-urea] showed a Ki of 0.142 µM.

Compound `COc1ccc(-c2ccc3nc(NC(=O)NCCN(C)C)sc3c2)cn1` [Example 2-3, 1-(2-Dimethylamino-ethyl)-3-[6-(6-methoxy-pyridin-3-yl)-benzothiazol-2-yl]urea] came in with a Ki of 0.038 µM.

The same experiment, now with this note: Table 4.
The compound `CCn1nnc(CCNC(=O)Nc2nc3ccc(-c4cccnc4)cn3n2)n1` [Example 3-8, 1-[2-(2-Ethyl-2H-tetrazol-5-yl)-ethyl]-3-(6-pyridin-3-yl-[1,2,4]triazolo[1,5-a]pyridin-2-yl)-urea] returned a Ki of 0.099 µM.

In the case of `CCn1nnc(CCNC(=O)Nc2nc3cc(-c4cccnc4)ccn3n2)n1` [Example 3-15, 1-[2-(2-Ethyl-2H-tetrazol-5-yl)-ethyl]-3-(7-pyridin-3-yl-[1,2,4]triazolo[1,5-a]pyridin-2-yl)-urea], the Ki was 0.502 µM.

`CCn1nnc(CCNC(=O)Nc2nc3ccc(-c4cncc(C#N)c4)cn3n2)n1` [Example 3-9, 1-[6-(5-Cyano-pyridin-3-yl)-[1,2,4]triazolo[1,5-a]pyridin-2-yl]-3-[2-(2-ethyl-2H-tetrazol-5-yl)-ethyl]-urea]: the affinity, expressed as Ki, was 0.418 µM.

Consider `CCn1nnc(CCNC(=O)Nc2cn3cc(-c4cccnc4)ncc3n2)n1` [Example 3-6, 1-[2-(2-Ethyl-2H-tetrazol-5-yl)-ethyl]-3-(6-pyridin-3-yl-imidazo[1,2-a]pyrazin-2-yl)-urea], for which the Ki came out at 0.082 µM.

The term Ki denotes a measure of affinity in units of concentration, obtained from inhibition or displacement.
